In patent US4156737A, “P-Aminomethyl-benzene-sulfonamide derivatives, process for their preparation and applications thereof” (priority 1977, dated 1979):
Counter-ions that a name gives are not always drawn.

Tests used:
mice = test: LD50 in mice, intraperitoneal route (acute toxicity); format: in vivo; conditions: for toxicity: general statement introducing LD50
[1] = as above; format: in vivo; conditions: mouse, in vivo, ip; mice, intraperitoneal route
[2] = test system: holes punctured through the ears of New Zealand rabbits; test: Action on cicatrization of holes punctured through the ears of rabbits; format: in vivo; conditions: 10% suspension applied locally around ear hole; versus reference animals or p-aminomethyl-benzene-sulfonamide
Protocol: To evaluate the healing action of the products of Examples 1 and 2 holes of equal diameter were punctured through the ears of New Zealand rabbits, after which the time required for cicatrization of said holes to occur was determined in untreated reference rabbits, in rabbits treated locally around the hole punctured through the ear with a 10% p-aminomethyl-benzene-sulfonamide suspension or with a suspension of identical concentration of the products of Examples 1 and 2.

treated animals = test: Chronic toxicity, laboratory, organ and histological examinations of the treated animals; format: in vivo, rats and rabbits
Source text: In particular, no modification was found on examination of the weight increase, of the differential leucocyte count, of azotemia, of the transaminases and of urinary excretion.
Similarly, no modification was detected on anatomopathologic and physiological examinations conducted at the level of the main organs of the treated animals.

Pseudomonas = test: Anti-bacterial activity, agar dilutions on Mueller-Hinton medium, Pseudomonas; format: cell-based
Protocol: (§1) Various tests were used to determine the anti-bacterial activity of the products of Examples 1 and 2 with respect to p-aminomethyl-benzene-sulfonamide. Said tests were effected according to the agar dilutions on Mueller-Hinton medium. The inoculum is prepared by means of an automatic Multipoint Inoculation apparatus, with a 24 hrs broth culture diluted to 1/10.
(§2) The test materials are suspended in a Twin solution.
(§3) The following germ strains were used: E. coli 130; E. coli 3671; E. coli K 12; E. coli 334; Pseudomonas 66/5; Pseudomonas 630412; Pseudomonas Paffoni; Staphylococcus 209 P; Staphylococcus 153; Pseudomonas vulgaris 66/24; Proteus marg. 66/68; Proteus mirab. 564; Proteus mirab. 250; Serrata marcescens 67/14; Salmonella 29582; Salmonella gr. B; Providencia 70/13.

skin of rabbits = test: Topical application on the skin of rabbits (tolerance); format: in vivo
Source text: (§4) High dosages of said products, suspended in suitable excipients, could be applied without any evidence of toxic symptons.
(§5) Application of said products was effected on the skin of animals both after depilation and after depilation and abrasion, so as to obtain continuous skin lesions.

Staphylococcus = test: Anti-bacterial activity, agar dilutions on Mueller-Hinton medium, Staphylococcus; format: cell-based
Protocol: as §1, §2, §3

E. coli = test: Anti-bacterial activity, agar dilutions on Mueller-Hinton medium, E. coli; format: cell-based
Protocol: as §1, §2, §3

[3] = test system: experimentally induced burns in male Sprague-Dawley rats; test: Protective action on experimentally induced burns; format: in vivo; conditions: for percent death rate of the burnt animals: after 48 hrs, versus reference animals or equivalent dosages of p-aminomethyl-benzene-sulfonamide; for protection compared with p-aminomethyl-benzene-sulfonamide: local; for protection compared with p-aminomethyl-benzene-sulfonamide / protective action against experimentally induced burns: 500 mg/kg; for protective action against experimentally induced burns: prior local administration
Protocol: The seriousness of the lesion thus induced is evaluated by means of the intravenous injection of Evans Blue, a vital dye.

skin of rats = test: Topical application on the skin of rats (tolerance); format: in vivo
Source text: as §4, §5

[4] = test system: germ strains (E. coli, Pseudomonas, Staphylococcus, Proteus, Serrata marcescens, Salmonella, Providencia); test: Anti-bacterial activity, agar dilutions on Mueller-Hinton medium, all germ strains; format: cell-based; conditions: versus p-aminomethyl-benzene-sulfonamide
Protocol: as §1, §2, §3

[5] = Hygroscopicity and stability of the isolated powder; format: physicochemical; conditions: white powder
Protocol: The material is allowed to rest at a temperature of 5° C. for 24 hours, after which the resulting product is filtered off.

Row | Compound | toxicity (mice) | LD50 [1] [mg/kg] | tissue regeneration and cicatrization [2] | histological examination of skin samples (treated animals; in vivo) | susceptibility of species (Pseudomonas) | tolerance and apparent toxicity after topical application (skin of rabbits; rabbit, in vivo) | susceptibility of species (Staphylococcus) | susceptibility of species (E. coli) | percent death rate of the burnt animals [3] | protection compared with p-aminomethyl-benzene-sulfonamide [3] | protective action against experimentally induced burns [3] | tolerance and apparent toxicity after topical application (skin of rats; rat, in vivo) | inhibiting action on the growth of the germ colonies [4] | LD50 (mice; mice, intraperitoneal route) [mg/kg] | histological examination of skin samples (treated animals; chronic topical treatment, inflammatory or degenerative modification) | hygroscopicity and stability [5] | tolerance and apparent toxicity after topical application (skin of rabbits; skin of rabbits, topical) | tolerance and apparent toxicity after topical application (skin of rats; skin of rats, topical)
1 | NCc1ccc(S(N)(=O)=O)cc1 [Example 1, p-aminomethyl-benzene-sulfonamide, silver salt] | very low toxicity | 55 | much more rapid than in the reference animals or in the animals treated with p-aminomethyl-benzene-sulfonamide | failed to disclose any modification of inflammatory or degenerative type | particularly susceptible | equally well tolerated and free from any apparent toxicity | particularly susceptible | particularly susceptible | lower | superior to that exerted by p-aminomethyl-benzene-sulfonamide | exerts a protective action against experimentally induced burns, by inhibiting or decreasing the intensity and the seriousness of the local lesions | equally well tolerated and free from any apparent toxicity | higher inhibiting action at lower concentrations than p-aminomethyl-benzene-sulfonamide | – | – | – | – | –
2 | p-aminomethyl-benzene-sulfonamide, zinc salt [Example 2] | very low toxicity | – | much more rapid than in the reference animals or in the animals treated with p-aminomethyl-benzene-sulfonamide | – | particularly susceptible | – | particularly susceptible | particularly susceptible | lower | superior to that exerted by p-aminomethyl-benzene-sulfonamide | exerts a protective action against experimentally induced burns, by inhibiting or decreasing the intensity and the seriousness of the local lesions | – | higher inhibiting action at lower concentrations than p-aminomethyl-benzene-sulfonamide | 80 | failed to disclose any modification of inflammatory or degenerative type | non-hygroscopic stable | equally well tolerated and free from any apparent toxicity | equally well tolerated and free from any apparent toxicity
